We go through one compound from patent US20240238268A1, “TREATMENTS AND METHODS FOR TREATING ALZHEIMER'S DISEASE” (Board of Supervisors of Louisiana State University and …, priority 2021, published 2024).

Common to all, as to assay type: in vivo, mouse
The subject of test [1] is C57 mice. As to the kind of experiment: Neurovascular coupling: microvessel diameter, two-photon laser scanning microscopy, C57 mice. As to conditions: decreased PRMT4 via TP-064/PRMT4-AAV.
The subject of test [2] is C57BL/6J mice. The experiment in a line: Regional cortical cerebral blood flow, laser speckle contrast imaging, C57 mice. As for the experimental part:
(§1) Surgical Preparation and Anesthetic Procedure: Mice were anesthetized with 4% isoflurane (Cat. No. 21295098, Patterson Veterinary, Greeley, CO) and a mixture of O2 and N2O (30:70) via mask. Hair was shaved at the site of surgery (from the nape up to the eyes). Body temperature was maintained at 37° C. by a rodent heating pad with anal probe as a temperature reference (ThermoStar, RWD Life Science, San Diego, CA). Anesthesia was maintained by lowering isoflurane from 4% to 1%.
(§2) Thinned-skull preparation: Mice were placed in a stereotaxic frame to stabilize the skull and artificial tears (Patterson Veterinary, Greeley, CO) was applied in each eye. Dissection scissors and forceps were used to reveal the skull. A high-speed dental drill (RWD Life Science, San Diego, CA) was used to thin the skull creating a small window (1 mm in diameter) approximately 2 mm rostral and 1 mm lateral to the lambda, with saline irrigation to prevent overheating of the skull tissue. Laser speckle contrast imaging or two-photon laser scanning microscopy analyses were conducted following this preparation.
(§3) Laser speckle contrast imaging: Cerebral microvasculature was imaged by utilizing the thin skull preparation method. After thinning the skull, the mouse was placed in a stereotaxic apparatus. […]

Test [3] deals with aged 3xTg-AD female mice. As to the kind of experiment: Neurovascular coupling: microvessel diameter after whisker stimulation, two-photon laser scanning microscopy. The settings on record: TP-064 30 mg/kg for 7 days, IP or PRMT4-AAV knockdown. As for the experimental part: FIGS. 11A-11D show neurovascular coupling dysfunction was alleviated with specific PRMT4 inhibitor (TP-064) or PRMT4-AAV knockdown in aged 3xTg-AD female mice. In FIG. 11A, neurovascular coupling was evaluated based on vascular tonicity changes in response to whisker stimulation (30 sec, 4 Hz) via two-photon laser scanning microscopy. FITC-dextran was injected IV for visualization of cerebral microvessels (Z=100 μm depth) in the cortex. In FIG. 11B, vessel diameters were measured before/after whisker stimulation, and before/after TP-064 (30 mg/kg for 7 days, IP) or PRMT4-AAV knockdown.
Determining if inhibition of PRMT4 can promote neurovascular coupling. […] One reason for this is the loss of neurovascular coupling is associated with the early progression of AD. Whisker-barrel stimulation is a well-established model for examining neurovascular coupling [Rodgers (our in-house collaborator) et al., 2006, 2008, 2009]. The inventors measured cortical microvessel vascular reactivity with two-photon laser scanning microscopy while evoking 30 sec of whisker stimulation in mice. Based on the inventors' findings that aged 3xTg-AD female mice had enhanced PRMT4 expression (FIGS. 2A-3C and 5A-5D), the inventors' results evidence that aged 3xTg-AD female mice presented decreased cortical microvessel diameter as compared to aged 3xTg-AD male mice 30 see (4 Hz) after whisker stimulation. […]

Test [4] deals with aged 3xTg-AD female mice. As to the kind of experiment: Regional cortical cerebral blood flow, laser speckle contrast imaging. The settings on record: 3xTg-AD mice; 30 mg/kg, IP, 7 days; untreated C57BL/6J = 100%. As for the experimental part: as §1, §2, §3

On to `CNCCN1CCC(c2cc(CN(C)C(=O)c3cccc(Oc4ccccc4)c3)ccn2)CC1` [TP-064, N-Methyl-N-((2-(1-(2-(methylamino)ethyl)piperidin-4-yl)pyridin-4-yl)methyl)-3-phenoxybenzamide], for which, in test [1], the vascular diameters entry is “did not affect”. In test [2] (C57 mice, decreased PRMT4 via TP-064/PRMT4-AAV), the perfusion entry is given as “did not affect”. Besides, the “regional cortical CBF” value is 98.3±10.1% in test [2] (treated C57BL/6J mice, 30 mg/kg, IP, 7 days) and 194%±8.6 in test [4]. Moreover, the “microvessel diameter after whisker stimulation” value in test [3] was “increased”.
